The record followed here is US12612403B2, “Nitrogen-containing heterocyclic derivative inhibitor, and preparation method therefor and use thereof” (SHANGHAI HANSOH BIOMEDICAL CO., LTD., priority 2024, dated 2026).

The target of one data set is T1, PCSK9 protein (Homo sapiens, UniProt Q8NBP7).
T1 construct: purchased Sino biology (Sino Biological) 29698-H08H
The data set can be described thus: Binding ability to PCSK9 protein (HTRF). The following applies: PCSK9-His, Alexa Fluor 647 probe compound. On the procedure:
1. Experimental objective: To detect the action of compounds to bind PCSK9 protein by an HTRF method.
3. Experimental data processing method: Four-parameter log(inhibitor) vs. response—Variable slope (four parameters) in XLit was used to perform non-linear fitting of the compound concentration and the corresponding inhibition rate, and IC50 was calculated.

Data set [1] deals with PCSK9 secreted by HepG2 cells. The experiment in a line: Effect on the concentration of PCSK9 secreted by HepG2 cells (ELISA). The format is cell-based. The following applies: Homo sapiens, 48 hours, PCSK9 in culture medium by ELISA. On the procedure:
1. Experimental objective: To detect the inhibitory effect of the compounds on PCSK9.
2. Experimental method: • 1) HepG2 cell strain was cultured in the complete culture medium at 37° C., 5% CO2 to 70-90% confluence. • 2) The cells were digested and resuspended in the experimental culture medium, inoculated at 25,000 cells/well/200 μL in a 96-well cell culture plate, and cultured at 37° C. and 5% CO2 for 20-24 hours. • 3) The culture medium was removed from the cell culture plate, and the cell culture plate was washed once by adding 200 ul of the experimental culture medium to each well. • 4) Preparation of positive control compound and compound to be tested: the positive control compound and the compound to be tested were diluted on the compound plate. • 5) The diluted compound was added to the cell culture plate at 250 μL per well and incubated at 37° C. and 5% CO2 for 48 hours. • 6) The cell culture medium was collected at 200 μL per well and cryopreserved at −80° C. for later use. • 7) A sample of the cell culture medium was taken from the −80° C. cryopreservation condition, dissolved, vortexed, and centrifuged for later use. • 8) Preparation of standard curve: corresponding volumes of Dilution buffer were successively added to respective standard tubes, and in the order of the concentrations of 10, 5, 2.5, 1.25, 0.625, 0.313, 0.16, 0 ng/mL, the standard was diluted in series by taking the corresponding volume from the original tube or the last concentration tube. • 9) Preparation of washing liquid: 10x Wash buffer was diluted into 1x with Milli-Q for later use. • 10) According to the standard curve wells and sample wells set according to a plate map, 100 μL/well of the corresponding standards and culture medium samples were added to the wells, with 2 replicate wells. A self-adhesive seal was applied, the plate was placed on a plate shaker at room temperature, gently shaken, uniformly mixed, and incubated for 1 hour. • 11) The plate was placed on the plate washer, the washing liquid was set to 350 μL per well, and the plate was washed 4 times repeatedly. • 12) 100 μL/well of an HRP-conjugated detection antibody was added, a self-adhesive seal was applied, and the plate was placed on the plate shaker, well mixed uniformly, and incubated for 1 hour. • 13) The plate was placed on the plate washer, the washing liquid was set to 350 μL per well, and the plate was washed 4 times repeatedly. • 14) 100 μL/well of Substrate reagent was added, and the plate was placed in the dark, applied with a self-adhesive seal, placed on the plate shaker, well mixed uniformly, and incubated for 10-20 minutes. • 15) 100 μL of Stop solution (1N H2SO4) was added to each well and mixed uniformly. • 16) The optical density (OD) value in each well was measured in sequence at a wavelength of 450 nm by the microplate reader. Detection was carried out within 30 min after the reaction was stopped.
3. Experimental data processing method: After the OD values were read by the microplate reader, the OD value of the 0-concentration standard in the standard group was subtracted from the OD values of the standards, control group, and samples to obtain the actual OD values for these wells. A standard curve was plotted with Graphpad and the concentration of the sample was calculated. If the dilution was performed during the sample detection, the calculated sample concentration was necessarily multiplied by the corresponding dilution ratio in the final calculation, which was the actual concentration of the sample. Inhibition rate=(actual concentration in control−actual concentration in sample)/actual concentration in control*100. According to the inhibition rates corresponding to the different concentrations, IC50 was derived by Graphpad.
On the technique in general: In an ELISA, binding on a coated surface is turned into a signal by an enzyme label.

Data set [2] in a line: Pharmacokinetic determination in mice (PO 5 mg/kg, IV 1 mg/kg). It is filed as in vivo, C57BL/6J mice. The following applies: male, C57BL/6J, mouse, plasma, C57 mice, PO administration, 5 mpk; for AUC(0-inf): read-out: Area under the curve AUC0-∞; for half-life: read-out: Half-life t1/2 (converted); for MRT: read-out: Mean residence time MRT; for Cmax: read-out: Plasma concentration Cmax; for Tmax: read-out: Time to peak tmax. On the procedure:
1. Experimental objective: C57BL/6J mice were used as test animals to study the pharmacokinetic behavior of the compounds of the present disclosure in mice (plasma) after oral and intravenous administration.
2.2 Test animals: C57 mice, male, purchased from Shanghai Bk Lab Animal Co., Ltd., with animal production license number (SCXK (Shanghai) 2013-0006 N0.311620400001794).
2.3 Drug preparation: Preparation of oral drug: 10% Solutol HS15
10 g of Solutol HS15 solid was weighed, dissolved in 90 mL of pure water, uniformly mixed, stirred, and ultrasonically treated to form a clear solution. The compound of the present disclosure was weighed and dissolved in this solution, uniformly shaken, and ultrasonically treated for 15 minutes to obtain a colorless clear solution with a concentration of 0.5 mg/mL. Preparation of intravenous drug: 5% DMSO+10% Solutol HS15+85% PBS, the compound of the present disclosure was weighed, 5% DMSO was first added on the basis of the proportion relative to the total volume of administration, and the mixture was vortexed and ultrasonically treated for 2 min until it was completely dissolved; 10% of Solutol HS15 was then added, and the mixture was vortexed and ultrasonically treated for 2 min until it was completely dissolved; and finally, 85% of PBS was added, and the mixture was vortexed, ultrasonically treated for 5 min, and filtered through a 0.22 um filter membrane to obtain a colorless and transparent clear solution with a concentration of 0.2 mg/mL.
2.4 Administration: 3 male C57 mice were fasted overnight and then respectively administered PO at a dose of 5 mg/kg and a volume of 10 mL/kg. 3 male C57 mice were fasted overnight and then respectively administered IV at a dose of 1 mg/kg and a volume of 5 mL/kg.
2.5 Sample collection: Before and after administration of mice, 0.04 mL of blood was collected from the orbit at 0.083 (iv), 0.25, 0.5, 1, 2, 4, 8, and 24 hours, and placed in EDTA-K2 test tubes, which was centrifuged at 6000 rpm at 4° C. for 6 min to separate plasma which was stored at −80° C.; and the […] were fed 4 h after administration.
2.6 Determination results: The final determination results were obtained by using an LCMS/MS method.
3. Experimental results: The main pharmacokinetic parameters were calculated using WinNonlin 6.1.

T1 sequence (Q8NBP7 153-692): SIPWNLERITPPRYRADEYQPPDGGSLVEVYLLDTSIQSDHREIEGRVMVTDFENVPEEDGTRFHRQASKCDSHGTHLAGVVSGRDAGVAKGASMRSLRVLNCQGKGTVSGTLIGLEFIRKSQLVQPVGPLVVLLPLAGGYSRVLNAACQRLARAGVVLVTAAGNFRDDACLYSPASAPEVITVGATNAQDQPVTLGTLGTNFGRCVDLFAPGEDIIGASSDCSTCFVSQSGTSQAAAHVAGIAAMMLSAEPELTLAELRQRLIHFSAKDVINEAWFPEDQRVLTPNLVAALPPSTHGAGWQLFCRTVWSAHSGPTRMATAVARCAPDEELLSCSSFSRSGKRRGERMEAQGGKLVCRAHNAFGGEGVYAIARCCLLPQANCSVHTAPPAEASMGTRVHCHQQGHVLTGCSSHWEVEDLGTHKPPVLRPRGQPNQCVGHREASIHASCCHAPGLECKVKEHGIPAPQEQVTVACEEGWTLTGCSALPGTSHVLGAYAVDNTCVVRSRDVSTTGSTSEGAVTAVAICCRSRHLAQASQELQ

A word on the IC50: it is the concentration needed to halve the response being measured. The low end stands for greater potency in that assay, the high end for weaker potency in that assay. Regarding `O=C1c2ccc(C3CC3)nc2CN1c1ccc(N[C@H]2CC[C@H](Nc3nc4cc(C(F)(F)F)ccn4n3)C2)nc1` [Example 68, 2-cyclopropyl-6-(6-(((1S,3S)-3-((7-(trifluoromethyl)-[1,2,4]triazolo[1,5-a]pyridin-2-yl)amino)cyclopentyl)amino)pyridin-3-yl)-6,7-dihydro-5H-pyrrolo[3,4-b]pyridin-5-one], the IC50 on PCSK9 protein was 0.0098 µM; in data set [1] it was 2 µM.
The corresponding values for `N#Cc1nccc2c1CN(c1ccc(N[C@H]3CC[C@H](Nc4nc5cc(C(F)(F)F)ccn5n4)C3)nc1)C2=O` [Example 76, 1-carbonyl-2-(6-(((1S,3S)-3-((7-(trifluoromethyl)-[1,2,4]triazolo[1,5-a]pyridin-2-yl)amino)cyclopentyl)amino)pyridin-3-yl)-2,3-dihydro-1H-pyrrolo[3,4-c]pyridine-4-carbonitrile] are 0.0139 µM and 4.8 µM.
Consider `CC(C)(O)c1ccn(-c2ccc(=O)n(-c3ccc(N[C@H]4CC[C@H](Nc5nc6cc(C(F)(F)F)ccn6n5)C4)nc3)c2)n1` [Example 79, 5-(3-(2-hydroxypropan-2-yl)-1H-pyrazol-1-yl)-6′-(((1S,3S)-3-((7-(trifluoromethyl)-[1,2,4]triazolo[1,5-a]pyridin-2-yl)amino)cyclopentyl)amino)-2H-[1,3′-bipyridine]-2-one], for which the IC50 on PCSK9 protein is 0.0249 µM; in data set [1], 15.1 µM.
In turn, `CC(C)(O)c1ccn(-c2ccc(N[C@H]3CC[C@H](Nc4nc5cc(C(F)(F)F)ccn5n4)C3)nc2)c(=O)c1` [Example 81, 4-(2-hydroxypropan-2-yl)-6′-(((1S,3S)-3-((7-(trifluoromethyl)-[1,2,4]triazolo[1,5-a]pyridin-2-yl)amino)cyclopentyl)amino)-2H-[1,3′-bipyridine]-2-one] yielded an IC50 in data set [1] of 26.5 µM.
Consider `Cc1ccc2c(c1)C(=O)N(c1ccc(N[C@H]3CC[C@H](Nc4nc5cc(C(F)(F)F)ccn5n4)C3)nc1)C2` [Example 82, 6-methyl-2-(6-(((1S,3S)-3-((7-(trifluoromethyl)-[1,2,4]triazolo[1,5-a]pyridin-2-yl)amino)cyclopentyl)amino)pyridin-3-yl)isoindolin-1-one], for which the results for the concentration for half-maximal inhibition (IC50) (on PCSK9 protein; in data set [1]) were 0.0118 µM and 0.8 µM, respectively.
In the case of `Cc1ccc2c(c1)CN(c1ccc(N[C@H]3CC[C@H](Nc4nc5cc(C(F)(F)F)ccn5n4)C3)nc1)C2=O` [Example 85, 5-methyl-2-(6-(((1S,3S)-3-((7-(trifluoromethyl)-[1,2,4]triazolo[1,5-a]pyridin-2-yl)amino)cyclopentyl)amino)pyridin-3-yl)isoindolin-1-one], 2.6 µM corresponded to half-maximal inhibition in data set [1] (IC50).
With `O=C1c2ccc(F)cc2CN1c1ccc(N[C@H]2CC[C@H](Nc3nc4cc(C(F)(F)F)ccn4n3)C2)nc1` [Example 86, 5-fluoro-2-(6-(((1S,3S)-3-((7-(trifluoromethyl)-[1,2,4]triazolo[1,5-a]pyridin-2-yl)amino)cyclopentyl)amino)pyridin-3-yl)isoindolin-1-one], the IC50 in data set [1] turned out to be 0.9 µM.
The same measure, in the same setting: the result for `Cn1c2ccccc2c(=O)n1-c1ccc(N[C@H]2CC[C@H](Nc3nc4cc(C(F)(F)F)ccn4n3)C2)nc1` [Example 87] reads 0.6 µM; that for `Cc1cc2c(c(C#N)n1)CN(c1ccc(N[C@H]3CC[C@H](Nc4nc5cc(C(F)(F)F)ccn5n4)C3)nc1)C2=O` [Example 90, 6-methyl-1-carbonyl-2-(6-(((1S,3S)-3-((7-(trifluoromethyl)-[1,2,4]triazolo[1,5-a]pyridin-2-yl)amino)cyclopentyl)amino)pyridin-3-yl)-2,3-dihydro-1H-pyrrolo[3,4-c]pyridine-4-carbonitrile], 2.7 µM; that for `O=C1c2ncc(Cl)cc2CN1c1ccc(N[C@H]2CC[C@H](Nc3nc4cc(C(F)(F)F)ccn4n3)C2)nc1` [Example 95], 0.7 µM.
On to `N#Cc1cnc2c(c1)CN(c1ccc(N[C@H]3CC[C@H](Nc4nc5cc(C(F)(F)F)ccn5n4)C3)nc1)C2=O` [Example 96], for which the midpoint of inhibition in data set [1], the IC50, lay at 12.7 µM.
A word on the MRT: it is a mean duration of stay, worked out from the concentration-time curve. As usually defined, the Tmax is the time at which the peak concentration occurs. In turn, `Cc1cc2c(cn1)CN(c1ccc(N[C@H]3CC[C@H](Nc4nc5cc(OC(F)F)ccn5n4)C3)nc1)C2=O` [Example 99] gave an IC50 in data set [1] of 6.6 µM. Besides, in data set [2], the AUC(0-inf) was determined as 27900 ng·h/mL, the half-life was 2.7 h, the MRT was determined as 3.4 h and the Cmax worked out at 7240 ng/mL. The Tmax in data set [2] stood at 0.25 h.
In the case of `Cc1nccc2c1CN(c1ccc(N[C@H]3CC[C@H](Nc4nc5cc(OC(F)F)ccn5n4)C3)nc1)C2=O` [Example 100], it took 5 µM to reach half-maximal inhibition in data set [1] (IC50).
For `O=c1nc(O)ccn1-c1ccc(N[C@H]2CC[C@H](Nc3nc4cc(Cl)ccn4n3)C2)nc1` [Example 103], the IC50 in data set [1] worked out at 1.4 µM.
On to `Cc1cc(N[C@H]2CC[C@H](Nc3nc4cc(C(F)(F)F)ccn4n3)C2)ncc1N1Cc2cccnc2C1=O` [Example 113], for which the IC50 in data set [1] worked out at 6.9 µM.
In the case of `O=C1c2cc(Cl)cnc2CN1c1ccc(N[C@H]2CC[C@H](Nc3nc4cc(OC(F)F)ccn4n3)C2)nc1` [Example 130], the IC50 in data set [1] is 1.5 µM. Further, in data set [2], the AUC(0-inf) stood at 57900 ng·h/mL, the half-life is 3.6 h, the MRT is 6.1 h and the Cmax came out at 5090 ng/mL. Besides, the Tmax in data set [2] came to 1 h.
Take `O=C1c2cccnc2CN1c1cnc(N[C@H]2CC[C@H](Nc3nc4cc(C(F)(F)F)ccn4n3)C2)c(F)c1` [Example 162]: in data set [1], the midpoint of inhibition, the IC50, lay at 5.3 µM.
Same read-out and setting: the same measure for `O=c1ccccn1-c1ccc(N[C@H]2CC[C@H](Nc3nc4cc(C(F)(F)F)ccn4n3)C2)nc1` [Example 426]: 14 µM; for `O=c1ccccn1-c1ccc(N[C@H]2CC[C@H](Nc3nc4cc(C5CC5)ccn4n3)C2)nc1` [Example 427]: 22.3 µM.
